The assay concerns the target T1, human cathepsin K (Homo sapiens, UniProt P43235).
T1 construct: The proform of cathepsin K was converted to mature cathepsin K by brief exposure to pH 4; made in house; host or cells: baculovirus; Trichoplusia ni High Five cells (virus raised in Sf-9)
T1 sequence (P43235 115-329): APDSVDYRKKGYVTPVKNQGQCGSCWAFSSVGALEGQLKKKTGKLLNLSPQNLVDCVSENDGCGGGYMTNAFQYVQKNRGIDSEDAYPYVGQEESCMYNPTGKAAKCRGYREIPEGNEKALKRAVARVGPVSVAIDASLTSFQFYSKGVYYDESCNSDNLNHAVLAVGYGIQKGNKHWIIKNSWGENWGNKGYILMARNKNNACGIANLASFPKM
As to the kind of experiment: Cathepsin K inhibition assay, human recombinant enzyme, fluorogenic substrate Cbz-Phe-Arg-AMC. The conditions noted are these: Table 1, human cathepsin K; read-out: h Cat K IC50. Type of assay: biochemical. How it is done: All assays for cathepsin K were carried out with human and rat recombinant enzyme. Assays for cathepsins S ? V were also carried out with human recombinant enzyme. Assays for human cathepsins B, H, and L were carried out with enzyme, purchased from Athens Research and Technology, Inc., prepared from human liver tissue. […] A stock substrate solution of Cbz-Phe-Arg-AMC was prepared at a concentration of 50 mM in dimethyl sulfoxide. This substrate was diluted into the assay for a final substrate concentration of 10 μM in the rat cathepsin K, human cathepsin K, and human cathepsin B assays; a final substrate concentration of 5 μM in the human cathepsin L assay; and a final substrate concentration of 2 μM in the human cathepsin V assay.
All assays contained 10% dimethyl sulfoxide. […] All assays were conducted at 30° C. Product fluorescence (excitation at 360 nm; emission at 440 nm, (except cathepsin H which used excitation at 340 nm; emission at 420 nm)) was monitored with a PerSeptive Biosystems Cytofluor II fluorescence plate reader. Product progress curves were generated over 2.3 h monitoring the formation of 7-amino-4-methylcoumarin product (or β-naphthalamide for cathepsin H).
Human and rat Cathepsin K:
Two liters of Spodoptera frugiperda (Sf-9) cells (ATCC) were grown in Grace's Supplemented medium (Life Technologies) supplemented with 2 g/L glucose, 10% fetal bovine serum (HyClone) and 0.1% pluronic F-68 (Life Technologies). […] The cells continued to grow for 72 h post-infection, before the virus was harvested by centrifugation at 1400×g for 30 min.
One and one-half liters of Trichoplusia ni (T. ni) High Five (™) cells [JRH Biosciences, Woodland, Calif. […] The cells were grown for 24 h at 28° C., 50 RPM, and 50% dissolved oxygen. […] Media were separated from cells at a rate of 1 L/min using the Centritech 100 ™ continuous-flow centrifuge (DuPont) operating at 200×g.
Protein Purification: Media (human and rat) were filtered through a Whatman 3 filter, and then loaded onto a 25 mL. Poros HS II (26 mm×47 mm) cation exchange column equilibrated in 25 mM sodium acetate at pH 5.5 (equilibration buffer). The column was washed until the absorbance reached the baseline value, and then the protein was eluted with a linear gradient from 0-2 M sodium chloride in the equilibration buffer. Column fractions were analyzed by SDS-PAGE, N-terminal sequencing, and mass spectrometry. Fractions containing the proform of cathepsin K were pooled and frozen at −80° C. The proform was concentrated in an Amicon Centriprep 10 and fractionated with a Superdex 75 column (26 mm×600 mm, Pharmacia) equilibrated in 400 mM sodium chloride, 25 mM sodium acetate at pH 5.5.
Cathepsin K Activation: The proform of cathepsin K was converted to mature cathepsin K by brief exposure to pH 4 in the presence of 5 mM L-cysteine. Typically, 5 mM L-cysteine was added to 10 mL of approximately 1 mg/mL procathepsin K. One mL of this solution was diluted ten-fold into 450 mM sodium acetate at pH 4.0 containing 5 mM L-cysteine. This solution was reacted at 23° C. for 2 min before neutralization with 2 mL, 1.8 M sodium acetate at pH 6.0. The neutralized sample was added to the remaining 9 mL of procathepsin K. The mixture was incubated at 4° C. for 2-3 days. The activated cathepsin K was chromatographed on a Poros HS II column as described above.
Potential inhibitors were evaluated using the progress curve method. Assays were carried out in the presence of variable concentrations of test compound. Reactions were initiated by addition of buffered solutions of inhibitor and substrate to enzyme. Data analysis was conducted according to one of two procedures depending on the appearance of the progress curves in the presence of inhibitors. […] Ki values were calculated from IC50 values using equation 2 assuming a competitive model.
The term IC50 denotes the concentration that inhibits the measured activity by half. As for `CCCC[C@H](NC(=O)O[C@@H]1CN(C(=O)O[C@H]2CCOC2)CC1(C)C)C(=O)C(=O)N[C@H](C)c1ccccc1` [Example 43, (3S)-Tetrahydro-3-furanyl (4S)-3,3-dimethyl-4-[({[(1S)-1-(oxo{[(1R)-1-phenylethyl]amino}acetyl)pentyl]amino}carbonyl)oxy]-1-pyrrolidinecarboxylate], the IC50 lay in the range of 0.01 to 0.1 µM. The result for `CCCC[C@H](NC(=O)O[C@@H]1CN(C(=O)OCc2ccccc2)CC1(C)C)C(=O)C(=O)N[C@H](C)c1ccccc1` [Example 44, Benzyl (4S)-3,3-dimethyl-4-[({[(1S)-1-(oxo{[(1R)-1-phenylethyl]amino}acetyl)pentyl]amino}carbonyl)oxy]-1-pyrrolidinecarboxylate] reads 0.01 to 0.1 µM; that for `CCCC[C@H](NC(=O)O[C@@H]1CN(C(=O)OCCc2ccccc2)CC1(C)C)C(=O)C(=O)N[C@H](C)c1ccccc1` [Example 45, 2-Phenylethyl (4S)-3,3-dimethyl-4-[({[(1S)-1-(oxo {[(1R)-1-phenylethyl]amino}acetyl)pentyl]amino}carbonyl)oxy]-1-pyrrolidinecarboxylate], 0.01 to 0.1 µM. On to `CCCC[C@H](NC(=O)O[C@@H]1CN(C(=O)OCc2cn(-c3ccccc3)nn2)CC1(C)C)C(=O)C(=O)N[C@H](C)c1ccccc1` [Example 46, (1-Phenyl-1H-1,2,3-triazol-4-yl)methyl (4S)-3,3-dimethyl-4-[({[(1S)-1-(oxo{[(1R)-1-phenylethyl]amino}acetyl)pentyl]amino}carbonyl)oxy]-1-pyrrolidinecarboxylate], for which the IC50 lay in the range of 0.001 to 0.01 µM. The result for `CCCC[C@H](NC(=O)O[C@@H]1CN(C(=O)OCCN2CCCC2=O)CC1(C)C)C(=O)C(=O)N[C@H](C)c1ccccc1` [Example 47, 2-(2-Oxo-1-pyrrolidinyl)ethyl (4S)-3,3-dimethyl-4-[({[(1S)-1-(oxo{[(1R)-1-phenylethyl]amino}acetyl)pentyl]amino}carbonyl)oxy]-1-pyrrolidinecarboxylate] reads 0.01 to 0.1 µM; that for `CCCC[C@H](NC(=O)O[C@@H]1CN(C(=O)OCC2CCCCO2)CC1(C)C)C(=O)C(=O)N[C@H](C)c1ccccc1` (stereo partly drawn) [Example 48, Tetrahydro-2H-pyran-2-ylmethyl (4S)-3,3-dimethyl-4-[({[(1S)-1-(oxo{[(1R)-1-phenylethyl]amino}acetyl)pentyl]amino}carbonyl)oxy]-1-pyrrolidinecarboxylate], 0.1 to 1 µM. Then `CCCC[C@H](NC(=O)O[C@@H]1CN(C(=O)OCC2CCOC2)CC1(C)C)C(=O)C(=O)N[C@H](C)c1ccccc1` (stereo partly drawn) [Example 49, Tetrahydro-3-furanylmethyl (4S)-3,3-dimethyl-4-[({[(1S)-1-(oxo {[(1R)-1-phenylethyl]amino}acetyl)pentyl]amino}carbonyl)oxy]-1-pyrrolidinecarboxylate], with 0.01 to 0.1 µM; and `CCCC[C@H](NC(=O)O[C@@H]1CN(C(=O)OCc2c(C)noc2-c2cc(C)on2)CC1(C)C)C(=O)C(=O)N[C@H](C)c1ccccc1` [Example 50, [3-Methyl-5-(5-methyl-isoxazol-3-yl)-4-isoxazolyl]methyl (4S)-3,3-dimethyl-4-[({[(1S)-1-(oxo{[(1R)-1-phenylethyl]amino}acetyl)pentyl]amino}carbonyl)oxy]-1-pyrrolidinecarboxylate], with 0.01 to 0.1 µM. Turning to `CCCC[C@H](NC(=O)O[C@@H]1CN(C(=O)OCCc2scnc2C)CC1(C)C)C(=O)C(=O)N[C@H](C)c1ccccc1` [Example 51, 2-(4-Methyl-1,3-thiazol-5-yl)ethyl (4S)-3,3-dimethyl-4-[({[(1S)-1-(oxo {[(1R)-1-phenylethyl]amino}acetyl)pentyl]amino}carbonyl)oxy]-1-pyrrolidinecarboxylate], the IC50 was 0.001 to 0.01 µM. The result for `CCCC[C@H](NC(=O)O[C@@H]1CN(C(=O)OCc2cc(C)on2)CC1(C)C)C(=O)C(=O)N[C@H](C)c1ccccc1` [Example 52, (5-methyl-3-isoxazolyl)methyl (4S)-3,3-dimethyl-4-[({[(1S)-1-(oxo{[(1R)-1-phenylethyl]amino}acetyl)pentyl]amino}carbonyl)oxy]-1-pyrrolidinecarboxylate] reads 0.01 to 0.1 µM.

Source of the values: US7402606B2, “Derivatives of 1-(oxoaminoacetyl) pentylcarbamate as cathepsin K inhibitors for the treatment of bone loss” (SmithKline Beecham Corporation, priority 2002, dated 2008).
